Drawing on PMC6801708 (2019), this text covers ΔTm for two molecules.

This assay deals with Pu22T14T23 (DNA, G4, none (G-to-T mutations at positions 14 and 23)) TGAGGGTGGGTAGGGTGGGTAA
The experiment in a line: CD melting at 262 nm. To be noted: K+ (20 mM KCl); 5 mM phosphate pH 7.0; 1 µM DNA, 3 µM ligand; Tm 77.4 to 80.6.

`CN(C)CCNC(=O)c1cccn2c(=O)c3cc4ccccc4cc3nc12`: the ΔTm result was “+3.2 °C”.

For `CN(C)CCNC(=O)c1cccn2c(=O)c3sc4ccccc4c3nc12`, the ΔTm entry was “+3.2 °C”.
